From patent US8378104B2 (OSI Pharmaceuticals, LLC, priority 2010, dated 2013)
Structures can show the parent of a compound that is named as a salt.

How the values were obtained:
p-p38 in HCT-116 cells = assay: Phospho-p38 Meso Scale ELISA assay, TNFα-stimulated HCT-116 cells; type: cell-based; conditions: Homo sapiens, read-out: mean HCT-116 p-p38 ELISA IC50 (Col. C)
Protocol: Detailed below are ELISA assays for pJNK and p38, and a TAK1 biochemical assay. […] In Table 1, Col.
• 1. Plate HCT-116 cells at 25,000 per well in 100 uL in 96 well clear dishes in normal growth medium. Day 2: • 1. Aspirate medium and replace with 90 μl reduced serum growth medium (1% FCS), incubate for 2 hours at 37° C. • 2. Make drugs at 10× in reduced serum medium and add 10 uL per well. • 3. Incubate at 37° C. for 4 hrs. • 4. Bring capture plates to room temperature. • 5. Block with 150 μl Blocking Solution (provided with kit) (600 mg Blocker A into 20 mL 1× Wash Buffer per plate) at room temperature with shaking. • 6. Wash plates 4× with 200 μl 1× wash buffer (10× provided with kit) before transferring lysates. • 7. Dilute TNFα to […] in reduced serum medium (this makes a 10× working stock). • 8. Add 10 μl TNFα to all wells except negative control wells, final concentration is 10 ng/mL. • 9. Incubate at 37° C. for 10 minutes. • 10. Remove medium by flicking into sink • 11. Wash cells with 100 uL ice cold PBS. • 12. Remove PBS by flicking into sink and patting on paper towels. • 13. Lyse cells in 50 μl ice cold 1× Complete Lysis Buffer plus Phosphatase and Protease inhibitors (all provided with kit) (10 mL Tris Lysis Buffer+200 μl Protease inhibitor solution+100 μl Phosphatase inhibitor I+100 μl Phosphatase inhibitor II). • 14. Incubate with shaking at 4° C. for 30 minutes. • 15. Transfer 45 μl to capture plate, cover with adhesive cover, and incubate at 4° C. over night with shaking. • Day 3: • 1. Wash plates 4× with 200 μl 1× wash buffer (10× provided with kit). • 2. […] Incubate at room temperature with shaking for 1 hour. • 4. Wash 4× with 200 μl 1× Wash Buffer. • 5. […] Read on Sector Imager. Phospho-p38 Meso Scale ELISA Assay Day 1: • 1. Plate HCT-116 cells at 25,000 per well in 100 uL in 96 well clear dishes in normal growth medium. zday 2: • 1. Aspirate medium and replace with 90 μl reduced serum growth medium (1% FCS), incubate for 2 hours at 37° C. • 2. Make drugs at 10× in reduced serum medium and add 10 uL per well. • 3. Incubate at 37° C. for 4 hrs. • 4. Bring capture plates to room temperature. • 5. Block with 150 μl Blocking Solution (provided with kit) (600 mg Blocker A into 20 mL 1× Wash Buffer per plate) at room temperature with shaking. • 6. Wash plates 4× with 200 μl 1× wash buffer (10× provided with kit) before transferring lysates. • 7. Dilute TNFα to […] in reduced serum medium (this makes a 10× working stock). • 8. Add 10 μl TNFα to all wells except negative control wells, final concentration is 10 ng/mL. • 9. Incubate at 37° C. for 10 minutes. • 10. Remove medium by flicking into sink • 11. Wash cells with 100 uL ice cold PBS. • 12. Remove PBS by flicking into sink and patting on paper towels. • 13. Lyse cells in 50 μl ice cold 1× Complete Lysis Buffer plus phosphatase and protease inhibitors (all provided with kit) (10 mL Tris Lysis Buffer+200 μl Protease inhibitor solution+100 μl Phosphatase inhibitor I+100 μl Phosphatase inhibitor II). • 14. Incubate with shaking at 4° C. for 30 minutes. • 15. Dilute lysates before transferring to capture plate with 100 μl Complete p38 Lysate • Dilution Buffer (provided with kit) (10 mL of Diluent 20±200 μl Protease inhibitor solution+100 μl Phosphatase inhibitor I+100 μl Phosphatase inhibitor II). • 16. Transfer 50 μl of diluted lysates to capture plate, cover with adhesive cover, and incubate at 4° C. over night with shaking. Day 3: • 1. Wash plates 4× with 200 μl 1× wash buffer (10× provided with kit). • 2. […] Incubate at room temperature with shaking for 1 hour. • 4. Wash 4× with 200 μl 1× Wash Buffer. • 5. […] Read on Sector Imager. TAK1 Biochemical Assay

pJNK in HCT-116 cells = assay: Phospho-JNK (Thr183/Tyr185) Meso Scale ELISA assay, TNFα-stimulated HCT-116 cells; type: cell-based; conditions: Homo sapiens, read-out: mean HCT-116 pJNK ELISA IC50 (Col. B)
Outline: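 HCT-116 cells in 1% FCS medium were pretreated with compound for 4 hrs at 37° C, then stimulated with TNFα at 10 ng/mL final for 10 minutes. Lysates were taken in ice-cold lysis buffer with phosphatase and protease inhibitors, and phospho-JNK (Thr183/Tyr185) was measured by Meso Scale ELISA.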

TAK1-TAB1 fusion protein = target: T1, TAK1-TAB1 fusion protein (Homo sapiens, UniProt O43318); assay: TAK1 biochemical assay (AlphaScreen, GST-MAP2K7 substrate); conditions: TAK1-TAB1 fusion protein, GST-MAP2K7 substrate; read-out: mean TAK1 IC50 (Col. A)
T1 construct: purchased Carna
T1 sequence (O43318 with tags, fused parts or gaps limits assumed): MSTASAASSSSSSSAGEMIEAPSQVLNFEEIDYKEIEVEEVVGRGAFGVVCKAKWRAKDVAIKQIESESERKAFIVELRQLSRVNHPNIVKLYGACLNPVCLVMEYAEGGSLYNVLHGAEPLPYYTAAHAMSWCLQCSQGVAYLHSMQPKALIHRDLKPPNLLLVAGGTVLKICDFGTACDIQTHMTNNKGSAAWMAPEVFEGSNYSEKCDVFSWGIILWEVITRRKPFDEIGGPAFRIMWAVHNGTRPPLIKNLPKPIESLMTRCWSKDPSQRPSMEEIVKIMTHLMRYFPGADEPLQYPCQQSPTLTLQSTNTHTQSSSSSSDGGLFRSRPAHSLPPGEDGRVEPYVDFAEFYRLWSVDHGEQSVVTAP

| Compound | IC50 (p-p38 in HCT-116 cells) [nM] | IC50 (pJNK in HCT-116 cells) [nM] | IC50 (TAK1-TAB1 fusion protein) [nM] |
| --- | --- | --- | --- |
| CC(=O)N1CCC(n2cc(-c3cnc(N)c4oc(-c5ccc6[nH]nnc6c5)cc34)cn2)CC1 [Example 158, 1-(4-{4-[7-amino-2-(1H-benzotriazol-5-yl)furo[2,3-c]pyridin-4-yl]-1H-pyrazol-1-yl}piperidin-1-yl)ethanone] | > 10000 | > 10000 | < 100 |
| Nc1ncc(-c2cc[nH]c2)c2cc(-c3csc4cnccc34)oc12 [Example 376, 4-(1H-pyrrol-3-yl)-2-thieno[2,3-c]pyridin-3-yl-furo[2,3-c]pyridin-7-ylamine] | 1000 to 10000 | 100 to 1000 | 1000 to 10000 |
| Nc1ncc(-c2cnn(C3CC4(C3)OCCO4)c2)c2cc(-c3csc4cnccc34)oc12 [Example 291, 4-[1-(5,8-dioxa-spiro[3.4]oct-2-yl)-1H-pyrazol-4-yl]-2-thieno[2,3-c]pyridin-3-yl-furo[2,3-c]pyridin-7-ylamine] | 100 to 1000 | 100 to 1000 | < 100 |
| Cn1cc(-c2cnc(N)c3oc(-c4c[nH]c5cnccc45)cc23)cn1 [Example 88, 4-(1-methyl-1H-pyrazol-4-yl)-2-(1H-pyrrolo[2,3-c]pyridin-3-yl)furo[2,3-c]pyridin-7-amine trifluoroacetic acid salt] | 100 to 1000 | 100 to 1000 | < 100 |
| CC(=O)N1CCC(n2cc(-c3cnc(N)c4oc(-c5cccc(S(C)(=O)=O)c5)cc34)cn2)CC1 [Example 101, 1-[4-(4-{7-amino-2-[3-(methylsulfonyl)phenyl]furo[2,3-c]pyridin-4-yl}-1H-pyrazol-1-yl)piperidin-1-yl]ethanone] | 1000 to 10000 | 1000 to 10000 | 1000 to 10000 |
| CC(=O)N1CCC(n2cc(-c3cnc(N)c4oc(-c5cccc(O)c5)cc34)cn2)CC1 [Example 132, 1-(4-{4-[7-amino-2-(3-hydroxyphenyl)furo[2,3-c]pyridin-4-yl]-1H-pyrazol-1-yl}piperidin-1-yl)ethanone] | 100 to 1000 | 100 to 1000 | < 100 |
| CC(=O)N1CCC(n2cc(-c3cnc(N)c4oc(-c5csc6cncnc56)cc34)cn2)CC1 [Example 260, 1-(4-{4-[7-amino-2-(thieno[3,2-d]pyrimidin-7-yl)furo[2,3-c]pyridin-4-yl]-1H-pyrazol-1-yl}piperidin-1-yl)ethanone] | 1000 to 10000 | 1000 to 10000 | 100 to 1000 |
| CC(=O)N1CCC(n2cc(-c3cnc(N)c4oc(-c5ccc6c(cnn6C)c5)cc34)cn2)CC1 [Example 146, 1-(4-{4-[7-amino-2-(1-methyl-1H-indazol-5-yl)furo[2,3-c]pyridin-4-yl]-1H-pyrazol-1-yl}piperidin-1-yl)ethanone] | 1000 to 10000 | 100 to 1000 | 1000 to 10000 |
| CC(=O)N1CCC(n2cc(-c3cnc(N)c4oc(-c5ccc(S(C)(=O)=O)cc5)cc34)cn2)CC1 [Example 129, 1-[4-(4-{7-amino-2-[4-(methylsulfonyl)phenyl]furo[2,3-c]pyridin-4-yl}-1H-pyrazol-1-yl)piperidin-1-yl]ethanone] | > 10000 | > 10000 | > 10000 |
| CC(=O)N1CCC(n2cc(-c3cnc(N)c4oc(-c5ccc6scnc6c5)cc34)cn2)CC1 [Example 107, 1-(4-{4-[7-amino-2-(1,3-benzothiazol-5-yl)furo[2,3-c]pyridin-4-yl]-1H-pyrazol-1-yl}piperidin-1-yl)ethanone] | 100 to 1000 | 100 to 1000 | 100 to 1000 |
| CC(=O)N1CCC(n2cc(-c3cnc(N)c4oc(-c5c[nH]c6cc(F)ccc56)cc34)cn2)CC1 [Example 213, 1-(4-{4-[7-amino-2-(6-fluoro-1H-indol-3-yl)furo[2,3-c]pyridin-4-yl]-1H-pyrazol-1-yl}piperidin-1-yl)ethanone] | 100 to 1000 | 100 to 1000 | 100 to 1000 |
| Nc1ncc(-c2cnn(C3CCN(CC(F)(F)F)CC3)c2)c2cc(-c3cccc4cnccc34)oc12 [Example 84, 2-(isoquinolin-5-yl)-4-{1-[1-(2,2,2-trifluoroethyl)piperidin-4-yl]-1H-pyrazol-4-yl}furo[2,3-c]pyridin-7-amine] | 100 to 1000 | 100 to 1000 | 1000 to 10000 |
| CC(=O)N1CCC(n2cc(-c3cnc(N)c4oc(-c5cccc6c5OC(F)(F)O6)cc34)cn2)CC1 [Example 191, 1-(4-{4-[7-amino-2-(2,2-difluoro-1,3-benzodioxol-4-yl)furo[2,3-c]pyridin-4-yl]-1H-pyrazol-1-yl}piperidin-1-yl)ethanone] | 100 to 1000 | 100 to 1000 | 100 to 1000 |
| CC(=O)N1CCC(n2cc(-c3cnc(N)c4oc(-c5cccc([N+](=O)[O-])c5C)cc34)cn2)CC1 [Example 218, 1-(4-{4-[7-amino-2-(2-methyl-3-nitrophenyl)furo[2,3-c]pyridin-4-yl]-1H-pyrazol-1-yl}piperidin-1-yl)ethanone] | 100 to 1000 | 100 to 1000 | < 100 |
| CC(=O)N1CCC(n2cc(-c3cnc(N)c4oc(-c5cccc6ccnn56)cc34)cn2)CC1 [Example 197, 1-(4-{4-[7-amino-2-(pyrazolo[1,5-a]pyridin-7-yl)furo[2,3-c]pyridin-4-yl]-1H-pyrazol-1-yl}piperidin-1-yl)ethanone] | 100 to 1000 | 100 to 1000 | 100 to 1000 |
| CC(=O)N1CCC(n2cc(-c3cnc(N)c4oc(-c5ccccc5C)cc34)cn2)CC1 [Example 410, 1-(4-{4-[7-amino-2-(2-methylphenyl)furo[2,3-c]pyridin-4-yl]-1H-pyrazol-1-yl}piperidin-1-yl)ethanone] | 1000 to 10000 | 100 to 1000 | 100 to 1000 |
| CC(=O)N1CCC(n2cc(-c3cnc(N)c4oc(-c5c(C)sc6cnccc56)cc34)cn2)CC1 [Example 253, 1-(4-{4-[7-amino-2-(2-methylthieno[2,3-c]pyridin-3-yl)furo[2,3-c]pyridin-4-yl]-1H-pyrazol-1-yl}piperidin-1-yl)ethanone trifluoroacetate] | 1000 to 10000 | 100 to 1000 | < 100 |
| Cc1sc2cnccc2c1-c1cc2c(-c3cnn([C@H]4CC[C@H](O)CC4)c3)cnc(N)c2o1 [Example 252, trans-4-{4-[7-amino-2-(2-methylthieno[2,3-c]pyridin-3-yl)furo[2,3-c]pyridin-4-yl]-1H-pyrazol-1-yl}cyclohexanol trifluoroacetate] | 100 to 1000 | – | 100 to 1000 |
